{"source": "patent US4650664A", "about": "(Dr. Karl Thomae GmbH, priority 1982, dated 1987)", "origin": "cited, not measured here", "conditions": "human", "data": [{"smiles": "OCCN(CCO)c1nc(N2CCCCC2)c2nc(N(CCO)CCO)ncc2n1", "note": "[Mopidamol, 2,6-bis-(diethanolamino)-4-piperidinopyrimido[5,4-d]pyrimidine]", "values": [{"measurement": "Excretion in the urine", "value": "only excreted in the urine to a very small extent"}]}]}
